In article PMC11184554, “Nature-Inspired Gallinamides Are Potent Antischistosomal Agents: Inhibition of the Cathepsin B1 Protease Target and Binding Mode Analysis” (ACS Infectious Diseases, 2024):

How the values were obtained:
[1] = system: S. mansoni prolyl oligopeptidase (SmPOP); experiment: Protease activity in extracts of adult worms treated with gallinamides, Cbz–Gly–Pro–AMC; type: cell-based; settings: adult worms incubated with 5 μM compound for 24 h (Figure 2 legend: 48 h); extract assayed with Cbz–Gly–Pro–AMC at pH 8.0
Protocol: (§1) Adult mixed sex S. mansoni were incubated in the presence of 5 μM gallinamide A, 1, 6, or 9 for 24 h, and protein extracts therefrom were assayed with the cathepsins B and L substrate, Cbz–Phe–Arg–AMC. Protease activity was reduced by ∼95% relative to the activity of untreated controls (Figure 2A). For comparison, we also quantified the activity of the nondigestive proteolytic enzyme, S. mansoni prolyl oligopeptidase (SmPOP). This serine protease, which is localized in the tegument of adult worms, was assayed with the selective substrate Cbz–Gly–Pro–AMC.[44] SmPOP was unaffected by the gallinamide treatment.
(§2) Figure 2 SmCB1 is a target for gallinamides in adult S. mansoni. (A) Mixed sex, adult S. mansoni were incubated for 48 h with 5 μM gallinamide A or 1, 6, and 9. After washing and preparation of worm extract, proteolytic activities (0.2 μg of protein) were measured in a kinetic assay using the cathepsin B and L substrate, Cbz–Phe–Arg–AMC (SmCatB/L, gray bars) at pH 5.5 or the prolyl oligopeptidase substrate, Cbz–Gly–Pro–AMC (SmPOP, white bars) at pH 8.0. Means ± SE of three replicates are normalized to the control not exposed to the inhibitor (set as 100%). (B–D) Imaging of SmCB1 using the gallinamide compound 5 as an activity-based probe. 5 contains an alkyne tag that can be modified by a copper-catalyzed click reaction with a fluorescent reagent (Alexa Fluor 647-azide) (B). Recombinant SmCB1 (rSmCB1, 0.5 μg) (C) or extracts of adult S. mansoni worms (7 μg of protein) (D) were incubated with 5 (10 μM) for 1 h and then clicked. Reactions were resolved by SDS-PAGE, and gels were visualized using a fluorescence scanner (Probe), stained for protein using Coomassie Brilliant Blue (CBB), or analyzed by Western blot with an anti-SmCB1 antibody (WB). In a control experiment, rSmCB1 or worm extract was treated with the […] protease inhibitor E-64 (10 μM), prior to incubation with 5. The positions of rSmCB1, native SmCB1, and its pro-form (pro-SmCB1) are indicated. The mass difference between rSmCB1 and native SmCB1 is caused by glycosylation (see Methods). The active site of the pro-SmCB1 is shielded by a propeptide[45] that prevents effective binding of 5. […]
(§3) Proteolytic activities in S. mansoni adult extracts were measured in a continuous kinetic assay using the following peptidyl fluorogenic substrates (Bachem) or internally quenched FRET substrates (IOCB): 50 μM Cbz–Phe–Arg–AMC for cathepsins B and L,[13],[15] […] Substrate hydrolysis was measured continuously using an Infinite M1000 microplate reader (Tecan) at excitation and emission wavelengths of 360/465 nm for AMC substrates and 320/420 nm for FRET substrates. […]

[2] = system: cathepsins B and L (SmCatB/L); experiment: Protease activity in extracts of adult worms treated with gallinamides, Cbz–Phe–Arg–AMC; type: cell-based, S. mansoni; settings: adult worms incubated with 5 μM compound for 24 h (Figure 2 legend: 48 h); extract assayed with Cbz–Phe–Arg–AMC at pH 5.5
Protocol: as §1, §2, §3

[3] = system: ex vivo adult mixed sex S. mansoni; experiment: Phenotypic screen with ex vivo adult schistosomes; type: cell-based; settings: for adult severity score: scale 0 to 4
Protocol: In the next step, the bioactive compounds gallinamide A, 1, 6, and 9 (selected for structural analyses (see below)) were phenotypically screened against adult schistosomes. Experiments were performed at 1, 2, 5, and 10 μM with ex vivo adult mixed sex S. mansoni, and the phenotypes observed over 48 h were assigned severity scores ranging from 0 to 4 (Table 3 and Table S3).
For adult schistosomes, screens were performed in 24-well plates containing four male worms and one to two female worms per well in a final volume of 2 mL of complete Basch medium. Compounds were added at the final concentrations between 1 and 10 μM. Incubations were maintained for 48 h at 37 °C under 5% CO2. Afterward, the adult worms were collected, washed in RPMI 1640 medium, and used for soluble protein extract preparation.
A constrained nomenclature of “descriptors”[39],[42] was used to record the multiple and dynamic changes in movement, shape, and translucence that the schistosome parasite is capable of (Table S1 for NTS and Table S3 for adults). These descriptors were then converted into an ordinal “severity score” system ranging from 0 (no effect) to 4 (maximum effect), which allows for the relative comparison of compound effects.

SMILES | SmPOP activity after gallinamide treatment [1] | protease activity reduced relative to untreated controls [2] [%] | adult phenotype descriptors ([3]; 2 h, 1 µM) | adult severity score ([3]; 2 h, 1 μM) | adult phenotype descriptors ([3]; 2 h, 2 µM) | adult severity score ([3]; 2 h, 2 μM) | adult phenotype descriptors ([3]; 2 h, 5 µM) | adult severity score ([3]; 2 h, 5 μM) | adult phenotype descriptors ([3]; 2 h, 10 µM) | adult severity score ([3]; 2 h, 10 μM) | adult phenotype descriptors ([3]; 6 h, 1 µM) | adult severity score ([3]; 6 h, 1 μM) | adult phenotype descriptors ([3]; 6 h, 2 µM) | adult severity score ([3]; 6 h, 2 μM) | adult phenotype descriptors ([3]; 6 h, 5 µM) | adult severity score ([3]; 6 h, 5 μM) | adult phenotype descriptors ([3]; 6 h, 10 µM) | adult severity score ([3]; 6 h, 10 μM) | adult phenotype descriptors ([3]; 24 h, 1 µM) | adult severity score ([3]; 24 h, 1 μM) | also measured
CC[C@H](C)[C@@H](C(=O)O[C@@H](CC(C)C)C(=O)N[C@@H](CC(C)C)C(=O)N[C@@H](C)/C=C/C(=O)N1C(=O)C=C(OC)[C@@H]1C)N(C)C [gallinamide A] | unaffected | ~95 | N | 0 | N | 0 | N | 0 | N | 0 | N | 0 | N | 0 | N | 0 | N | 0 | N | 0 | adult phenotype descriptors ([3]; 24 h, 2 µM): N; adult severity score ([3]; 24 h, 2 μM): 0; adult phenotype descriptors ([3]; 24 h, 5 µM): N; adult severity score ([3]; 24 h, 5 μM): 0; adult phenotype descriptors ([3]; 24 h, 10 µM): unc; adult severity score ([3]; 24 h, 10 μM): 1; adult phenotype descriptors ([3]; 48 h, 1 µM): N; adult severity score ([3]; 48 h, 1 μM): 0; adult phenotype descriptors ([3]; 48 h, 2 µM): S, dark; adult severity score ([3]; 48 h, 2 μM): 2; adult phenotype descriptors ([3]; 48 h, 5 µM): S, dark; adult severity score ([3]; 48 h, 5 μM): 2; adult severity score ([3]; 48 h, 10 μM): 3
CCC(C)C(C(=O)OC(CC(C)C)C(=O)NC(CC(C)C)C(=O)NC(C)C=CC(=O)N1C(=O)C=C(OC)C1CC(C)C)N(C)C (centres unmarked) [compound 1] | unaffected | ~95 | N | 0 | N | 0 | N | 0 | N | 0 | N | 0 | N | 0 | N | 0 | unc | 1 | N | 0 | adult phenotype descriptors ([3]; 24 h, 2 µM): N; adult severity score ([3]; 24 h, 2 μM): 0; adult phenotype descriptors ([3]; 24 h, 5 µM): N; adult severity score ([3]; 24 h, 5 μM): 0; adult severity score ([3]; 24 h, 10 μM): 4; adult phenotype descriptors ([3]; 48 h, 1 µM): N; adult severity score ([3]; 48 h, 1 μM): 0; adult phenotype descriptors ([3]; 48 h, 2 µM): unc, dark; adult severity score ([3]; 48 h, 2 μM): 2; adult phenotype descriptors ([3]; 48 h, 5 µM): unc, dark; adult severity score ([3]; 48 h, 5 μM): 2; adult severity score ([3]; 48 h, 10 μM): 4
COC1=CC(=O)N(C(=O)/C=C/[C@H](C)NC(=O)[C@H](CC(C)C)NC(=O)[C@H](CC(C)C)OC(=O)[C@H](Cc2ccccc2)N(C)C)[C@H]1Cc1ccccc1 [compound 6] | unaffected | ~95 | N | 0 | N | 0 | unc | 1 | unc, on sides | 2 | N | 0 | N | 0 | unc | 1 | unc, on sides | 2 | N | 0 | adult phenotype descriptors ([3]; 24 h, 2 µM): N; adult severity score ([3]; 24 h, 2 μM): 0; adult severity score ([3]; 24 h, 5 μM): 2; adult severity score ([3]; 24 h, 10 μM): 4; adult phenotype descriptors ([3]; 48 h, 1 µM): N; adult severity score ([3]; 48 h, 1 μM): 0; adult phenotype descriptors ([3]; 48 h, 2 µM): dark; adult severity score ([3]; 48 h, 2 μM): 1; adult severity score ([3]; 48 h, 5 μM): 4; adult severity score ([3]; 48 h, 10 μM): 4
